Measurements reported in patent US9877836B2, “Compression resistant implants including an oxysterol and methods of use” (Warsaw Orthopedic, Inc., priority 2015, dated 2018).
“Also recorded” adds a separate entry of the source.

Legend:
[1] = tested on: multipotent mesenchymal cells such as M2-10B4 (M2) marrow stromal cells and C3H10T1/2 embryonic fibroblasts; conditions: Kha et al. J Bone Miner Res 19:830-840, 2004; cited from earlier work
[2] = tested on: Mesenchymal stem cells; conditions: general statement, no experiment described; cited from earlier work
[3] = tested on: rat spines (posterolateral space, L3-L5); test: posterolateral spinal fusion in rat two-level spine model; format: in vivo; conditions: for bone growth on radiographs: 4-week and 8-week timepoints; for fusion by manual palpation of the spine segments (in words): 8 weeks; for fusion observed in rat spines (manual palpation): matrix of Oxy133, collagen and ceramic wetted with sterile water, two implants bilaterally, 8-week sacrifice, 5/5 spines
Description: FIG. 6 illustrates uses of a formulation of malleable implants having 20 mg of Oxy133 on each side of the implant, in accordance with the malleable implants described herein. […] A dry composition of a matrix containing Oxy133, collagen and ceramic as described herein was prepared and wetted with sterile water to be implanted in rat spines as shown in FIG. 6. The wetted matrix was cut in half with a razor blade to yield two halves. The two implants were molded into cylindrical shapes prior to insertion and were positioned bilaterally in the posterolateral space of each test subject. Each implant contained 20 mg Oxy133. Radiographs were taken roughly 10 minutes after the procedure, 4 weeks after the procedure, and 8 weeks after the procedure. […] Fusion was tested at 8-week sacrifice by manual palpation. […] A dry composition of a matrix containing Oxy133, collagen and ceramic as described herein was prepared and wetted with sterile water to be implanted in rat spines as shown in FIG. 6. The wetted matrix was cut in half with a razor blade to yield two halves. The two implants were molded into cylindrical shapes prior to insertion and were positioned bilaterally in the posterolateral space of each test subject. Each implant contained 125 mg Oxy133. Radiographs were taken roughly 10 minutes after the procedure, 4 weeks after the procedure, and 8 weeks after the procedure. […] Fusion was tested at 8-week sacrifice by manual palpation.

## CC(C)CC[C@H](O)[C@@H](C)[C@H]1CC[C@H]2[C@@H]3CC=C4C[C@@H](O)CC[C@]4(C)[C@H]3CC[C@]12C [22(S)-hydroxycholesterol]
[1]
  osteogenic differentiation: induce osteogenic differentiation

## CC(C)CC[C@@H](O)[C@@H](C)[C@H]1CC[C@H]2[C@@H]3CC=C4C[C@@H](O)CC[C@]4(C)[C@H]3CC[C@]12C [22(R)-hydroxycholesterol]
[1]
  osteogenic differentiation: induce osteogenic differentiation

## CCCCCC[C@](C)(O)[C@H]1CC[C@H]2[C@@H]3C[C@H](O)[C@H]4C[C@@H](O)CC[C@]4(C)[C@H]3CC[C@@]21C [Oxy133, (3S,5S,6S,8R,9S,10R,13S,14S,17S)-17-((S)-2-hydroxyoctan-2-yl)-10,13-dimethylhexadecahydro-1H-cyclopenta[α]phenanthrene-3,6-diol]
[2]
  osteoblast differentiation: increased osteoblast differentiation
[3]; implants with 20 mg Oxy133 each
  bone growth on radiographs: promoted bridging bone across the transverse processes of L3-L5; also recorded: Bone growth in rat test subjects can be seen
[3]; implants with 20 mg Oxy133 on each side
  fusion by manual palpation of the spine segments (in words): fusion was confirmed
[3]; implants with 125 mg Oxy133 each
  bone growth on radiographs: promoted bridging bone across the transverse processes of L3-L5; also recorded: Bone growth in rat test subjects can be seen
[3]; implants with 125 mg Oxy133 on each side
  fusion by manual palpation of the spine segments (in words): fusion was confirmed
[3]; each 20 mg Oxy133
  fusion observed in rat spines (manual palpation): 100%
[3]; each 125 mg Oxy133
  fusion observed in rat spines (manual palpation): 100%

## CC(C)CCC[C@](C)(O)[C@H]1CC[C@H]2[C@@H]3CC=C4C[C@@H](O)CC[C@]4(C)[C@H]3CC[C@@]21C [20(S)-hydroxycholesterol]
[1]
  osteogenic differentiation: induce osteogenic differentiation
